According to patent US20020045566A1, “Selective maxi-K potassium channel openers functional under conditions of high intracellular calcium concentration, methods and uses thereof” (priority 2000, published 2002):

What was measured:
[1] = target: T1, human brain maxi-K channel α-subunit (hSlo) (Homo sapiens, UniProt Q12791); assay: whole-cell patch-clamp of hSlo-mediated outward currents in transfected HEK-293 cells; assay type: cell-based; settings: for effect on hSlo-mediated current amplitudes: BMS-A at 1 μM
T1 construct: expressed in transfected cells; host or cells: HEK-293, stably transfected (pcDNA3, G418 selection)
T1 sequence (Q12791 1-1178 isoform Q12791-5): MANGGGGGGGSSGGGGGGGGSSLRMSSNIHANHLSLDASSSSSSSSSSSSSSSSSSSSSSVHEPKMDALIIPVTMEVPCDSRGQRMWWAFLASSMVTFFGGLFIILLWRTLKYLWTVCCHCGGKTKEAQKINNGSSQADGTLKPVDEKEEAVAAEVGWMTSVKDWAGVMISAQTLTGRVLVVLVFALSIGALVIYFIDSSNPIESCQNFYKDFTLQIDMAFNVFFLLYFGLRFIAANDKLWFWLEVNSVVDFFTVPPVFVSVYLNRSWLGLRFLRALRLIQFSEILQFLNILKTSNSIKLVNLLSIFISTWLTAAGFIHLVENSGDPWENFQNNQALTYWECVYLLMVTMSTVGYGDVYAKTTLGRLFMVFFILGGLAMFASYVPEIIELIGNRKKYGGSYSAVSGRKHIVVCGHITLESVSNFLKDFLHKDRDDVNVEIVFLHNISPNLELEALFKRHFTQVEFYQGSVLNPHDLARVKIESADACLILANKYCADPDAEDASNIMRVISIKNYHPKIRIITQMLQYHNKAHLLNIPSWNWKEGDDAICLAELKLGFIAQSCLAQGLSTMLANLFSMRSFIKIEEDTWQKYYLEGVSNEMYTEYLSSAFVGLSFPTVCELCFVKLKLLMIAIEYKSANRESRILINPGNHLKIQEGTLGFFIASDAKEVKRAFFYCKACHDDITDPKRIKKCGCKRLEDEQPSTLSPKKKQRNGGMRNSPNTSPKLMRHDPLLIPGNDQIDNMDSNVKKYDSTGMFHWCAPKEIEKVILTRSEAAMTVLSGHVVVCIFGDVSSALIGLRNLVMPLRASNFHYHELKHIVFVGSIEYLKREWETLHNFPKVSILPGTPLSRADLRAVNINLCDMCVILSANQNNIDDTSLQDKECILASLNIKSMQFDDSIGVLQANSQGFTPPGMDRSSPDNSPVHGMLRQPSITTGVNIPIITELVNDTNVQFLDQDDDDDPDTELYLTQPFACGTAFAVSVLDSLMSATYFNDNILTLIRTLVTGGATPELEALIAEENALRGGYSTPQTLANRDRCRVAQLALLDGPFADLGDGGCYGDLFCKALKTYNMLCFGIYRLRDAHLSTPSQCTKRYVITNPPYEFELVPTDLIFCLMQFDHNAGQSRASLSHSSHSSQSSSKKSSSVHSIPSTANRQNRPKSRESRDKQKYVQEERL
Procedure: HEK-293 cells were transfected with 1-2 μg of pcDNA3 expression plasmid containing hSlo α-subunit cDNA (S. I. Dworetzky et al., 1994, Brain Res. Mol. Brain Res., 27:189-193) using lipofectamine (Gibco) according to the manufacturer's protocol. Cells stably transfected with hSlo were selected in medium supplemented with 0.5 mg/ml Geneticin (G418; Sigma). Transfected HEK-293 cells were grown in Minimum Essential Medium (MEM; Gibco) supplemented with 10% fetal calf serum and G418 at 37° C. in a humidified atmosphere of 5% CO2 and 95% […]. Cells were plated on fibronectin-coated glass cover slips in 35 mm culture dishes.
Outward K^+-mediated currents were examined using standard whole-cell patch-clamp techniques (P. O. Hamill et al., 1981, Pflugers Arch., 391:85-100). Records were filtered at 2 kHz prior to digitization at 10 or 20 kHz. The bathing solution contained the following components: NaCl, 145 mM; KCl, 3 mM; CaCl2, 2.5 mM; MgCl2 1 mM; HEPES, 10 mM; pH 7.4. The recording pipettes were pulled from thick-walled borosilicate glass (2-4 Mω in bathing solution), fire polished and filled with a solution containing: KCl 140 mM; MOPS, 20 mM; EGTA, 1.0 mM; pH 7.2, with CaCl2 adjusted to produce the required [Ca^2+]free (determined using the EQCAL program (Biosoft, Cambridge) incorporating the methods of A. Fabiato and F. Fabiato, 1995, J. Physiol., Paris. 75:463-505.
Stimulus generation and data acquisition were controlled by either an Axopatch 200 amplifier or an EPC 9 amplifier, and the Pulse program suite. Data were stored and analyzed off-line. The cell holding potential was −100 mV for experiments with 2.5 μM [Ca^2+]i, and −80 or […] for the remaining Ca^2+ concentrations (1 μM, 250 nM and 50 nM). A series of 10 mV depolarizing voltage steps (100 to 200 ms) appropriate to the [Ca^2+]i was applied to evoke a family of outward currents. Series resistance was ≦6Mω before 80% compensation. Currents were measured at steady state near the end of the voltage pulse.
Using the whole-cell voltage-clamp technique (R. Penner, 1995, “A Practical Guide to Patch Clamping”; In: Single Channel Recording, 2nd Edition, (Eds. B. Sakmann and E. Neher), Plenum Press, New York, pp. 3-30), hSlo-mediated outward currents were recorded with pipettes containing different concentrations of Ca^2+ (i.e., [Ca^2+]free=50 nM, 1 μM or 2.5 μM). Clamped cells were exposed to 5 μM of the fluoro-oxindole opener compound BMS-204352, or the chloro-oxindole opener compound BMS-225113, as described in Examples 1.
For outside-out and whole cell patch analyses, the solutions used are normal extracellular Na^+ solution containing (in mM): NaCl, 145; KCl, 3; CaCl2, 2.5; MgCl2, 1; HEPES, 10; ±glucose, 10; pH 7.4. Intracellular and extracellular medium for inside-out patches, or pipette solution for whole-cell patch, comprise (in mM): KCl, 140; MOPS, 20; EGTA, 1.0; pH 7.2 CaCl2 adjusted to produce the required [Ca^2+]free (determined using the EQCAL program; Biosoft, Cambridge). The cell holding potential for whole-cell recordings is −80 or −60 mV and depolarizing voltage steps appropriate to the internal Ca^2+ concentration are applied (at high intracellular Ca^2+ seals become unstable at higher clamp voltages, and are stable at lower voltages for shorter periods).
This example describes experiments that were conducted to determine the effects of intracellular Ca^2+ concentration ([Ca^2+]i) and the use of the BMS-A compound (see U.S. Pat. No. 5,869,509, Example 82), versus a known benzimidazolone compound called NS-1619 [D. Strbaek et al., 1996, Neuropharmacology, 35:903-914 and M. McKay et al., 1997, J. Neurophysiology, 71:1873], on whole-cell currents in HEK-293 cells genetically engineered to express a human brain hSlo α-subunit. For these experiments, the cell holding potential was either −80 or −100 mV and a series of 10 mV depolarizing voltage steps appropriate to the [Ca^2+]i, was applied. […]

[2] = test system: cortical infarct volume; assay: permanent MCA occlusion in SHR rat, MRI; assay type: in vivo, spontaneously hypertensive rats (SHR); settings: 0.3 mg/kg bolus IV 2 hours after occlusion onset; at 5.5 and 24 hours after occlusion
[3] = teratogenicity in rats; assay type: in vivo
Procedure: (§1) BMS-204352 has an encouraging preclinical safety profile. […] In single- and multiple-dose studies unaffected by drug at doses at least 3×higher than the highest cytotoxic target organ changes following IV administration for 1 month at doses up to 10 mg/kg/day (rats) and for 10 days at doses up to 20 mg/kg/day (dogs).

[4] = target: T2, dopamine D3 receptor (Homo sapiens, UniProt P35462); assay: [3H]spiperone binding, PanLabs screen; settings: initial test
T2 construct: PanLabs (contract screen)
T2 sequence (P35462 whole entry): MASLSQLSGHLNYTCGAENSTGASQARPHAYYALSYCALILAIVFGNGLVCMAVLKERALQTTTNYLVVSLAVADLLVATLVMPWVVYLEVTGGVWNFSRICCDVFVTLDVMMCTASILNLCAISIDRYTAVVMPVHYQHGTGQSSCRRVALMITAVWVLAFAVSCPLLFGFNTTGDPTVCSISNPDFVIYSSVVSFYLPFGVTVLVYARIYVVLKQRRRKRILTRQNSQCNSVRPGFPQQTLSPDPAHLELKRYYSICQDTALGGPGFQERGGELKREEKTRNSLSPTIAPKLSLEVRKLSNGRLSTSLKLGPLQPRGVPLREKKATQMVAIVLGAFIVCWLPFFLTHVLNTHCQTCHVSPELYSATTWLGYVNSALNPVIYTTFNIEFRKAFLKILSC
From the text: (§2) BMS-204352 was also examined against a binding screen of over 50 receptors and enzyme systems (PanLabs ProfilingScreen® and DiscoveryScreen®). These systems include representatives of most G-protein coupled receptor families, ligand-gated ion channel families, as well as some voltage-gated ion channel binding sites such as the dihydropyridine receptor of L-type Ca^2+ channels. […] The significance of modest inhibition of σ1 ligand binding is unknown.

[5] = brain penetrance and pharmacokinetics after IV administration in rat; assay type: in vivo
From the text: The ischemic penumbra is an area of low vascular perfusion. For a neuroprotective agent to reach ischemic neurons at therapeutic doses following the onset of a stroke, it should enter the brain at very high levels.

[6] = test system: cortical infarct volume; assay: PUM,PIC,TCC model of acute stroke in Wistar normotensive rat; assay type: in vivo; settings: administered 2 hours post-occlusion
Procedure: Permanent focal occlusion of the proximal middle cerebral artery (MCA) is performed using a modified version of the method originally developed by A. Tamura et al. (1981, J. Cerebr. Blood Flow Metab., 1:53-60). In the permanent unilateral MCA, permanent ipsilateral common carotid arteries (CCA) and transient contralateral CCA (PUM,PIC,TCC model), normotensive male Wistar rats are anesthetized with a combination of ketamine (40 mg/kg, i.m.) and xylazine (4.5 mg/kg, i.m.). After exposure of the left MCA via the subtemporal approach, a 2 mm section of the artery is electrocauterized and severed. Within 5 minutes, both CCA are exposed and occluded. […]
The contralateral temporary CCA occlusion reduces collateral flow sufficiently to allow for consistent, large cortical infarcts (S. Brint et al., 1988, Cerebr. Blood Flow Metab., 8:474-485). […] Animals are maintained throughout at 37° C. and monitored by means of a rectal probe. At 24 hours after the occlusion, animals are sacrificed and brains are removed and evaluated by triphenyltetrazolium chloride (TTC) staining to determine the area of infarct. Brain slices are photographed and infarct volumes determined with the assistance of computerized image analysis. Data are analyzed using ANOVAs and appropriate post-hoc tests (Dunnett's).

[7] = cardiovascular safety in rats; assay type: in vivo; settings: doses at least 3× higher than the highest neuroprotective dose of 1 mg/kg IV
Procedure: as §1

[8] = test system: voltage-dependent potassium channels (Kv1.3, Kv1.5, Kv2.1); assay: ion channel specificity, Kv currents (electrophysiology); assay type: cell-based
Procedure: (§3) To determine the specificity of the effects of the opener compounds, including BMS-204352, on maxi-K potassium channels, the compounds were tested against a representative sample of cloned and native ion channels expressed in Xenopus oocytes and clonal cell lines and were assayed using standard electrophysiological techniques readily known to and practiced by those having skill in the art. These included voltage-dependent potassium channels (Kv1.3, Kv1.5, Kv2.1), Ca^2+-activated chloride (Cl^−) channels (native oocyte channels), the cystic fibrosis transmembrane conductance regulator Cl^− channel (CFTR) and Ca^2+ currents (native GH3 cell Ca^2+ current).

[9] = teratogenicity in rabbits; assay type: in vivo
Procedure: as §1

[10] = target: T3, σ1 (Homo sapiens, UniProt Q99720); assay: [3H](+)pentazocine binding, PanLabs screen
T3 construct: PanLabs (contract screen)
T3 sequence (Q99720 whole entry): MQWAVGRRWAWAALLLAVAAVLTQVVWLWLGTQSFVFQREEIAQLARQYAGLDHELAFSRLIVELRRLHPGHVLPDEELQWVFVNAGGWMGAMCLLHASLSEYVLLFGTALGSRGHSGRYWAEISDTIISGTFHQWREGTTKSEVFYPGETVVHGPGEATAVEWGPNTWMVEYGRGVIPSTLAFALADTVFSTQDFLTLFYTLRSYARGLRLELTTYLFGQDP
From the text: as §2

[11] = cardiovascular safety in anesthetized and conscious dogs; assay type: in vivo; settings: doses at least 3× higher than 1 mg/kg IV
Procedure: as §1

[12] = genotoxicity in vitro and in vivo
Procedure: as §1

[13] = test system: native GH3 cell Ca^2+ current; assay: ion channel specificity, native Ca2+ currents; assay type: cell-based; settings: at 1 and 10 μM; similar reductions due to current rundown in control cells
Procedure: as §3

[14] = test system: Ca^2+-activated chloride (Cl^−) channels (native oocyte channels); assay: ion channel specificity, Cl- currents (electrophysiology); assay type: cell-based, Xenopus; settings: native oocyte Ca2+-activated Cl- channels
Procedure: as §3

[15] = test system: cortical infarct volume; assay: permanent MCA occlusion in SHR rat; assay type: in vivo, spontaneously hypertensive rats (SHR); settings: administered 2 hours following occlusion onset, doses neuroprotective at earlier time points

Compound: COc1ccc(Cl)cc1C1(Cl)C(=O)Nc2cc(C(F)(F)F)ccc21 (racemic) [BMS-225113, (±)-(5-chloro-2-methoxyphenyl)1,3-dihydro-3-chloro-6-(trifluoromethyl)-2H-indol-2-one]
- effect on hSlo-mediated currents ([1]; compound 5 μM, [Ca2+]i 50 nM, 250 nM, 1 μM or 2.5 μM): significant increases only at the highest concentrations of Ca^2+ (1 μM and 2.5 μM)
- effect on maxi-K currents ([1]; compound 10 μM, [Ca2+]i 250 nM, 1.0 μM, 2.5 μM (FIG. 3A)): greater increases in maxi-K currents under conditions of higher [Ca^2+]i

Compound: O=c1[nH]c2cc(C(F)(F)F)ccc2n1-c1cc(C(F)(F)F)ccc1O [NS-1619, reference compound]
- effect on hSlo-mediated current amplitudes ([1]; [Ca2+]i 50 nM): increasing the hS/omediated current amplitudes at upper voltages
- effect on hSlo-mediated current amplitudes ([1]; [Ca2+]i 2.5 μM): increasing the hS/omediated current amplitudes at upper voltages

Compound: COc1ccc(Cl)cc1C1(F)C(=O)Nc2cc(C(F)(F)F)ccc21 (racemic) [Compound 1, (±)-(5-Chloro-2-methoxyphenyl)-1,3-dihydro-3-fluoro-6-(trifluoromethyl)-2H-indol-2-one]
- cortical infarct volume (MRI) [2]: significant reduction in cortical infarct volume

Compound: O=c1oc(-c2ccc(C(F)(F)F)cc2)nn1Cc1cc(Cl)ccc1O [BMS-A, 3-[(5-chloro-2-hydroxyphenyl)methyl]-5-[4-(trifluoromethyl)phenyl]-1,3,4-oxadiazol-2-(3H)-one]
- effect on hSlo-mediated current amplitudes ([1]; [Ca2+]i 50 nM): decreased current amplitudes over a wide range of voltages
- effect on hSlo-mediated current amplitudes ([1]; [Ca2+]i 2.5 μM): increased hSlo-mediated current amplitudes at the highest voltages

Compound: COc1ccc(Cl)cc1[C@]1(F)C(=O)Nc2cc(C(F)(F)F)ccc21 [BMS-204352, (3S)-(+)-(5-Chloro-2-methoxyphenyl)-1,3-dihydro-3-fluoro-6-(trifluoromethyl)-2H-indol-2-one]
- teratogenicity [3]: not teratogenic
- inhibition at 10 µM [4]: 74%
- Tmax ([5]; 5 mg/kg, rat brain, IV administration): 15 min
- Cmax ([5]; brain, rat, 5 mg/kg IV bolus dose): > 10000 ng/g
- brain half life ([5]; rat, IV): 114 min
- plasma half life ([5]; rat, IV): 96 min
- ratio of brain to plasma of the total compound detected ([5]; rat, over an 8 hour period): 9.6
- maximum reduction of cortical infarct volume [6]: 41%
- typical reductions of cortical infarct volume [6]: 20-30%
- heart rate and mean arterial blood pressure [7]: unaffected
- effect on Kv currents [8]: no significant effect
- teratogenicity [9]: not teratogenic
- inhibition at 10 µM [10]: 54%
- heart rate and mean arterial blood pressure [11]: unaffected
- genotoxicity [12]: not genotoxic
- reduction of native Ca2+ current [13]: 15-16%
- effect on Cl- currents [14]: no significant effect

Compound: CCc1cccc(N(C)C(N)=Nc2cccc3ccccc23)c1 [CNS-1102]
- neuroprotection [15]: ineffective

Compound: C[C@]12N[C@H](Cc3ccccc31)c1ccccc12 [MK-801]
- neuroprotection [15]: ineffective
